PMC6844378, “Structure activity relationship studies on Amb639752: toward the identification of a common pharmacophoric structure for DGKα inhibitors” (Journal of Enzyme Inhibition and Medicinal Chemistry, 2019)

What was measured:
[1] = molecular target: DGKα (Homo sapiens, UniProt P23743); assay: DGK assay on OST-DGKα enriched MDCK homogenates; type: biochemical; design: expressed in transfected cells; host or cells: MDCK cells (vector-infected, doxycycline-induced), crude homogenate; details: for remaining activity at 100 µM: percentage of residual DGKα activity compared to DMSO control, OST-DGKα overexpressing cell lysates, saturating DAG and ATP, read-out: Residue activity at 100 µM; for IC50: residual OST-DGKα activity at 0.1, 1.0, 10.0 and 100.0 µM
Sequence of DGKα (P23743 whole entry): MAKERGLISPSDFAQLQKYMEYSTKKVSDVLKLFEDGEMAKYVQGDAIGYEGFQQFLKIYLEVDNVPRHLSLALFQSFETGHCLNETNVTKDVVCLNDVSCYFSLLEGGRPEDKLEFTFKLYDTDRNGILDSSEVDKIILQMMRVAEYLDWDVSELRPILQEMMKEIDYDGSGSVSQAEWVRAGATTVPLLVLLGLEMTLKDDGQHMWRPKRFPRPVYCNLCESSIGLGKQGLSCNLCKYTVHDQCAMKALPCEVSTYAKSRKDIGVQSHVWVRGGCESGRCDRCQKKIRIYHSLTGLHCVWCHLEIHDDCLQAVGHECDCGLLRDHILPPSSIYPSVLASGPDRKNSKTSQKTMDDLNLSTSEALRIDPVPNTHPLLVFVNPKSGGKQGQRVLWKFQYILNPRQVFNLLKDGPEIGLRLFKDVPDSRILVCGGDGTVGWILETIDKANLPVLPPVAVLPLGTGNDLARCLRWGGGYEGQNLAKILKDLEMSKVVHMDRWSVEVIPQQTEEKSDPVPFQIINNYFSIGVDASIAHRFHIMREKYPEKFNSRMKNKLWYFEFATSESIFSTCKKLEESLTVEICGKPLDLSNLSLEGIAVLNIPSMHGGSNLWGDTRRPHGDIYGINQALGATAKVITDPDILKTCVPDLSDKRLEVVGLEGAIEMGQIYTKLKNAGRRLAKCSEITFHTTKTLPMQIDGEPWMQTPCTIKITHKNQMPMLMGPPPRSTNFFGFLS
Experimental: Madin-Darby canine kidney (MDCK) cells stably expressing One Strep Tag DGKα (OST-DGKα) were prepared by infecting MDCK cells with a vector expressing an inducible OST tagged DGKα constructs. MDCK cells infected with empty vector were used as controls. MDCK cells were cultured in MEM (minimal essential medium) with 5% FBS (foetal bovine serum) and 1% antibiotic–antimycotic solution. Routinely, cells were splitted every 3–4 days with trypsin–EDTA 0.25% in standard 100 mm dishes.
Large cultures of MDCK cells for enzyme preparation were done by plating 5 × 10^6 cells in 245 mm^2 dishes. Once they reached nearly 70% confluence, cells were treated with doxycycline (1 µg/mL, two days). […] Cells were collected with a rubber scraper, homogenised by passing them through a 29 G-needle syringe 20 times and stored in aliquots at –80 °C. Presence of OST-DGKα was confirmed by western blotting and enzyme assay, transduced DGKα has an activity >100 folds the endogenous DGK.
Essentionally, the same procedure was followed as reported previously in Velnati et al.[9] In brief, DGK activity was assayed by measuring initial velocities (5 min at 27 °C) in presence of saturating substrate concentrations. Reaction conditions: 0.9 µg/µL 1,2-dioleoyl-sn-glycerol, 5 mM ATP, 0.01 µCi/µL [γ^32P]-ATP, 1 mM sodium orthovanadate, 10 mM MgCl2, 1.2 mM EGTA in 7.5 mM Hepes pH 8[12]. Reaction mixture is assembled mixing enzyme (24.5 µL of homogenate), 100× inhibitor or DMSO (0.5 µL), 5× ATP solution (10 µL of 25 mM ATP, 0.05 µCi/µL [γ^32P]-ATP (Perkin-Elmer, Milan, Italy), 5 mM sodium orthovanadate, 50 mM MgCl2), and 3.3× DAG solution (15 µL of 3 µg/µL 1,2-dioleoyl-sn-glycerol resuspended by sonication in 4 mM EGTA in 25 mM Hepes pH 8). The reaction was stopped after 5 min by adding 200 µL of freshly prepared 1 M HCl and lipid was extracted by adding 200 µL of CH3OH:CHCl3 1:1 solution and vortexing for 1 min. The two phases were separated by centrifugation (12,000 RCF for 2 min). Twenty-five microlitres of the lower organic phase was spotted in small drops on silica TLC plates. TLC was run 10 cm and dried before radioactive signals were detected by GS-250 molecular imager and was quantified by quantity one (Bio-Rad, Hercules, CA) software assuring the absence of saturated spots.
Percentage residual activity was calculated as follows: (OST-DGKα homogenate with inhibitor – vector homogenate)/(OST-DGKα homogenate with DMSO – vector homogenate)×100.
Data for the screen on OST-DGKα homogenates are the mean of duplicates. The compounds showing inhibitory activity in this assay were tested >4 times and the mean ± SEM is reported.
To calculate IC50 values of active inhibitors, the inhibitor activity was measured at least three times at 0.1, 1.0, 10.0, and 100.0 µM concentration. Data were analysed using [inhibitor] vs. normalised response parameters with least square [ordinary] curve fitting method in GraphPad PRISM 8.0 software (GraphPad Software, La Jolla, CA) mentioning 95% confidence interval and IC50 values always greater than 0.0. […] In all the experiments, the data were normalised with the controls.
Each inhibitor was tested in duplicate at least once, and DGKα activity was expressed as percentage of residual DGKα activity compared to DMSO control in the same assay. Assay uses OST-DGKα overexpressing cell lysates in presence of saturating exogenous DAG and ATP. We considered R59022 (commercially available) and the lead compound Amb63975230 as our reference molecules.
To measure the inhibitor potency, we determined the IC50 values for the compounds that resulted active when tested at 100 µM by measuring the residual OST-DGKα activity over a dose range of inhibitor concentrations (0.1 µM, 1.0 µM, 10.0 µM, and 100.0 µM).

[2] = system: SAP-deficient T cells; assay: RICD assay in SAP silenced T cells; type: cell-based, human; details: 10 µM, 30 min pre-treatment; OKT3 10 ng/mL, 24 h
Experimental: PBL were isolated from healthy anonymous human donors by Ficoll-Paque PLUS (GE Healthcare, Chicago, IL) density gradient centrifugation, washed, and resuspended at 2 × 10^6 cell/mL in RPMI-GlutaMAX containing 10% heat inactivated FCS, 2 mM glutamine, and 100 U/mL of penicillin and streptomycin. T cells were activated with 1 µg/mL anti-CD3 (UCHT1) and anti-CD28 (clone CD28.2) antibodies. After three days, activated T cells were washed and cultured in medium additionated of 100 IU/mL rhIL-2 (Peprotech, Rocky Hill, NJ) at 1.2 × 10^6 cells/mL for ≥7 days by changing media for every 2–3 days.
Activated human PBLs were transfected with 200 pmol of siRNA oligonucleotides specific for the target protein (Stealth Select siRNA; Life Technologies, Carlsbad, CA) or a non-specific control oligo (Life Technologies, Carlsbad, CA). Transient transfections were performed using Amaxa nucleofector kits for human T cells (Lonza, Basel, Switzerland) and the Amaxa Nucleofector II or 4D systems (programmes T-20 or EI-115). Cells were cultured in IL-2 (100 IU/mL) for four days to allow target gene knockdown. Knockdown efficiency was periodically evaluated by Western blotting.
To test restimulation induced cell death, activated T cells (10^5 cells/well) were plated in triplicate in 96-well round-bottom plate and treated with anti-CD3 (clone OKT3) (10 ng/mL) in RPMI-GlutaMAX supplemented with 100 IU/mL rhIL-2 for 24 h. In these assays, inhibitors (10 µM) were added 30 min before the restimulation with OKT3. 24 h after treatment, cells were stained with 20 ng/mL propidium iodide and collected for a constant time of 30 s per sample on Attune Nxt Flow Cytometer (Thermo Fisher Scientific, Waltham, MA). Cell death is expressed as % cell loss and calculated as: % cell loss=(1−(number of viable cells in sample/number of viable cells in control)×100)
Results were expressed as mean ± standard error of the mean (SEM). We always compared controls and SAP silenced lymphocytes from the same donors as there is a large individual variability in RICD sensitivity.
To evaluate inhibitor efficacy in physiological context, we modelled XLP-1 by silencing SAP in primary peripheral blood T lymphocytes (PBLs) and restimulating them with anti-CD3 antibody (OKT3 10 ng/mL, 24 h). We pre-treated the cells with the indicated inhibitors for 30 min at a concentration of 10 µM[8].
Figure 9. DGKα inhibitors partially restores apoptosis in SAP deficient lymphocytes. […] After 4 days, the cells were restimulated with CD3 agonist OKT3 (10 ng/mL) in presence of respective inhibitor. Vehicle (DMSO) was used as control. Twenty-four hours later, the % of cell loss was evaluated by PI staining. Data are the mean ± SEM of nine independent experiments performed in triplicate.

SMILES	remaining activity at 100 µM [1] [%]	melting point [°C]	other results
Cc1ccc2c(C(=O)CN3CCN(C(=O)c4cccs4)CC3)c(C)[nH]c2c1 [Compound 14, 1-(2,6-Dimethyl-1H-indol-3-yl)-2-(4-(thiophene-2-carbonyl)piperazin-1-yl)ethan-1-one]	6	–	IC50 [1]: 3 µM; effect on RICD in control siRNA-transfected cells [2]: slightly reducing
CCCCCCC(=O)N1CCN(CC(=O)c2c(C)[nH]c3cc(C)ccc23)CC1 [Compound 22, 1-(4-(2-(2,6-Dimethyl-1H-indol-3-yl)-2-oxoethyl)piperazin-1-yl)heptan-1-one]	48	–	–
Cc1c(C(=O)CN2CCN(C(=O)c3ccco3)CC2)c2ccccc2n1C [Amb731111]	130	–	–
Cc1ccc2c(C(=O)CN3CCN(C(=O)C4CCCC4)CC3)c(C)[nH]c2c1 [Compound 21, 2-(4-(Cyclopentanecarbonyl)piperazin-1-yl)-1-(2,6-dimethyl-1H-indol-3-yl)ethan-1-one]	39	–	–
Cc1ccc2c(C(=O)CN3CCN(C(=O)c4ccc(F)c(F)c4)CC3)c(C)[nH]c2c1 [Compound 18, 2-(4-(3,4-Difluorobenzoyl)piperazin-1-yl)-1-(2,6-dimethyl-1H-indol-3-yl)ethan-1-one]	47	233.8 to 235	–
COc1ccc(C(=O)N2CCN(CC(=O)c3c(C)[nH]c4cc(C)ccc34)CC2)cc1 [Compound 12, 1-(2,6-Dimethyl-1H-indol-3-yl)-2-(4-(4-methoxybenzoyl)piperazin-1-yl)ethan-1-one]	6	219.9 to 220.8	IC50 [1]: 3.6 µM
Cc1ccc2c(C(=O)CN3CCN(C(=O)c4ccccc4C)CC3)c(C)[nH]c2c1 [Compound 16, 1-(2,6-Dimethyl-1H-indol-3-yl)-2-(4-(2-methylbenzoyl)piperazin-1-yl)ethan-1-one]	27	200.5 to 201.6	IC50 [1]: 32.8 µM
Cc1[nH]c2ccccc2c1C(=O)C(c1ccccc1)N1CCN(C(=O)c2ccco2)CC1 (centres unmarked) [Amb1926062]	88	–	–
CC(C(=O)c1c[nH]c2ccccc12)N1CCN(C(=O)c2ccco2)CC1 (centres unmarked) [Amb626577]	127	–	–
O=C(CN1CCN(C(=O)c2ccco2)CC1)c1c(-c2ccccc2)[nH]c2ccccc12 [Amb98433]	81	–	–
COc1ccc2[nH]cc(C(=O)CN3CCN(C(=O)c4ccco4)CC3)c2c1 [Amb629700]	101	–	–
Cc1[nH]c2ccccc2c1C(=O)C(C)N1CCN(C(=O)c2ccccc2)CC1 (centres unmarked) [Amb37496]	114	–	–
O=C(c1c[nH]c2ccccc12)C(c1ccccc1)N1CCN(C(=O)c2ccco2)CC1 (centres unmarked) [Amb94966]	196	–	–
COc1ccc2[nH]c(C)c(C(=O)CN3CCN(C(=O)c4ccco4)CC3)c2c1 [Amb687392]	115	–	–
COc1ccc2c(C(=O)CN3CCN(C(=O)c4ccco4)CC3)c(C)n(C)c2c1 [Amb726054]	126	–	–
Cc1ccc2c(C(=O)CN3CCN(C(=O)c4ccc(C#N)cc4)CC3)c(C)[nH]c2c1 [Compound 13, 4-(4-(2-(2,6-Dimethyl-1H-indol-3-yl)-2-oxoethyl)piperazine-1-carbonyl)benzonitrile]	14	243.9 to 244.8	IC50 [1]: 6.9 µM
Cc1ccc2c(C(=O)CN3CCN(C(=O)c4cccnc4)CC3)c(C)[nH]c2c1 [Compound 15, 1-(2,6-Dimethyl-1H-indol-3-yl)-2-(4-nicotinoylpiperazin-1-yl)ethan-1-one]	89	216.2 to 216.8	–
Cc1[nH]c2c(C)ccc(C)c2c1C(=O)CN1CCN(C(=O)c2ccco2)CC1 [Amb22018852]	160	–	–
O=C(CN1CCN(C(=O)c2ccco2)CC1)c1c[nH]c2ccccc12 [Compound 2]	135	–	–
Cc1ccc2[nH]cc(C(=O)CN3CCN(C(=O)c4ccco4)CC3)c2c1 [Amb758592]	150	–	–
O=c1c2ccccc2[nH]c(=S)n1CCC1CCC(=C(c2ccc(F)cc2)c2ccc(F)cc2)CC1 (centres unmarked) [Compound 1]	–	–	inhibitory activity on the enzyme (DGKα) [1]: totally devoid of inhibitory activity
Cn1c(-c2ccccc2)c(C(=O)CN2CCN(C(=O)c3ccco3)CC2)c2ccccc21 [Amb18718]	135	–	–
Cc1ccc2c(C(=O)CN3CCN(C(=O)c4cccc(Cl)c4)CC3)c(C)[nH]c2c1 [Compound 19, 2-(4-(3-Chlorobenzoyl)piperazin-1-yl)-1-(2,6-dimethyl-1H-indol-3-yl)ethan-1-one]	26	222.3 to 223.5	IC50 [1]: 49.7 µM
Cc1ccc2c(C(=O)CN3CCN(C(=O)c4ccccc4)CC3)c(C)[nH]c2c1 [Compound 8, 2-(4-Benzoylpiperazin-1-yl)-1-(2,6-dimethyl-1H-indol-3-yl)ethan-1-one]	5	213.8 to 214.3	IC50 [1]: 3.2 µM
Cc1ccc2c(C(=O)C(C)N3CCN(C(=O)c4ccco4)CC3)c(C)[nH]c2c1 (centres unmarked) [Amb758897]	67	–	–
COc1cccc(C(=O)N2CCN(CC(=O)c3c(C)[nH]c4cc(C)ccc34)CC2)c1 [Compound 17, 1-(2,6-Dimethyl-1H-indol-3-yl)-2-(4-(3-methoxybenzoyl)piperazin-1-yl)ethan-1-one]	41	209.8 to 210.4	–
